Drawing on patent US12084436B2, “Heterocyclic compound” (Takeda Pharmaceutical Company Limited, priority 2019, dated 2024), this text covers inhibition for 26 compounds.

The structures appear in SMILES notation.

The test addresses T1, HDAC6 enzyme (Homo sapiens, UniProt Q9UBN7).
T1 construct: prepared by transducing full length HDAC6 gene into Sf-9 insect cells; GST; purchased SignalChem; host or cells: Sf-9 insect cells
T1 sequence (Q9UBN7 1-1215): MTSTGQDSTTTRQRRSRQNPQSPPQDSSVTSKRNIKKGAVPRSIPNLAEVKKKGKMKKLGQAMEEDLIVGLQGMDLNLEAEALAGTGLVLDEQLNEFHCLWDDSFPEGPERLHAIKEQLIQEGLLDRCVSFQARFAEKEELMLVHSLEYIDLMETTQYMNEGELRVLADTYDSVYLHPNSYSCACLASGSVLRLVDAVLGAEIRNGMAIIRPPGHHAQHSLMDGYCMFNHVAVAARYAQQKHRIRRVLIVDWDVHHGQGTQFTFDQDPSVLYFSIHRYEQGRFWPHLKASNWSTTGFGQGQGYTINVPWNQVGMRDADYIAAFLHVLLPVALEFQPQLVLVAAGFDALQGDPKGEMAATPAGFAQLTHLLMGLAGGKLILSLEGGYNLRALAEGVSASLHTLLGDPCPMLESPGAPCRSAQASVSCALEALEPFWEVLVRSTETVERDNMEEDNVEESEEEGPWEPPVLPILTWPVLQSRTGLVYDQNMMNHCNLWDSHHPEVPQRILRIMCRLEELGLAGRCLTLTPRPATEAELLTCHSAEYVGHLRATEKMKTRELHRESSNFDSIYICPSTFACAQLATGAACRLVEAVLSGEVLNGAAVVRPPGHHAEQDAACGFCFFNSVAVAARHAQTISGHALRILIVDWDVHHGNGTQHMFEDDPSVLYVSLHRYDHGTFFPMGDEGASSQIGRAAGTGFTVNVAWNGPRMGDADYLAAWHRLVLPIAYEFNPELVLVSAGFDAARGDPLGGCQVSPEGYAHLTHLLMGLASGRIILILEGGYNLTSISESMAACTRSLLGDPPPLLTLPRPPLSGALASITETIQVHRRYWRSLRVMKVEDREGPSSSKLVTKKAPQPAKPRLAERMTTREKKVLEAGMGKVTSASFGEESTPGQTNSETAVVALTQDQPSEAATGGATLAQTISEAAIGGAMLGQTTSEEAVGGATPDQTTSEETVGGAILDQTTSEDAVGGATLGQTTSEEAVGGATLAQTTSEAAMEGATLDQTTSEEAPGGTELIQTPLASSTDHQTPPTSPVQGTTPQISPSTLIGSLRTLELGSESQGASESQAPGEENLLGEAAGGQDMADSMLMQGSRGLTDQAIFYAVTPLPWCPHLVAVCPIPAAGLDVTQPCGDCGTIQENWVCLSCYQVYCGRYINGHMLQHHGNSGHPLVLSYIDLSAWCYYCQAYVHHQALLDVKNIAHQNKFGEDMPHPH
Nature of the test: HDAC6 enzyme inhibitory assay (HDAC-Glo I/II Assay kit, luminescence). To be noted: 10 μM test compound; wells without enzyme = 100% inhibition; read-out: HDAC6 inhibitory rate (%) (10 μM). The class given is biochemical. The method in brief: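 Full-length human HDAC6, GST-purified from Sf-9 cells, was preincubated with compound for 60 min at room temperature in Tris-HCl pH 7.5 buffer with glutathione and Tween-20. Substrate-developer was then added, and luminescence was read after 20 min at room temperature. Inhibition was expressed relative to no-enzyme wells, taken as 100% inhibition.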

In the case of `CCOC(=O)C(C)CN(C)N1Cc2ccc(-c3nnc(C(F)F)o3)cc2C1=O` (centres unmarked) [Example 43c, ethyl 3-[{6-[5-(difluoromethyl)-1,3,4-oxadiazol-2-yl]-1-oxo-1,3-dihydro-2H-isoindol-2-yl}(methyl)amino]-2-methylpropanoate], the inhibition at 10 µM is 94%. Then `Fc1cccc(Cn2ccnc2-c2cc(F)cc(-c3nnc(C(F)F)o3)c2)c1` [Example 44a, 2-(difluoromethyl)-5-(3-fluoro-5-{1-[(3-fluorophenyl)methyl]-1H-imidazol-2-yl}phenyl)-1,3,4-oxadiazole], with 99%. Regarding `CN1C(=O)c2cc(-c3nnc(C(F)F)o3)ccc2OC1c1ccc(F)cc1` (centres unmarked) [Example 44b, 6-[5-(difluoromethyl)-1,3,4-oxadiazol-2-yl]-2-(4-fluorophenyl)-3-methyl-2,3-dihydro-4H-1,3-benzoxazin-4-one], the inhibition at 10 µM was determined as 100%. With `COC(=O)c1ccccc1CN(C)N1Cc2ccc(-c3nnc(C(F)F)o3)cc2C1=O` [Example 44c, methyl 2-{[{6-[5-(difluoromethyl)-1,3,4-oxadiazol-2-yl]-1-oxo-1,3-dihydro-2H-isoindol-2-yl}(methyl)amino]methyl}benzoate], the inhibition at 10 µM came to 102%. Take `Fc1cc(-c2nnc(C(F)F)o2)cc(-c2nccn2Cc2ccc(F)c(F)c2)c1` [Example 45a, 2-(difluoromethyl)-5-(3-{1-[(3,4-difluorophenyl)methyl]-1H-imidazol-2-yl}-5-fluorophenyl)-1,3,4-oxadiazole]: the inhibition at 10 µM is 100%. `CCN1C(=O)c2cc(-c3nnc(C(F)F)o3)ccc2OC1(C)c1ccc(F)cc1` (centres unmarked) [Example 45b, 6-[5-(difluoromethyl)-1,3,4-oxadiazol-2-yl]-3-ethyl-2-(4-fluorophenyl)-2-methyl-2,3-dihydro-4H-1,3-benzoxazin-4-one]: the inhibition at 10 µM turned out to be 100%. With `CN(Cc1ccc2nccn2c1)N1Cc2ccc(-c3nnc(C(F)F)o3)cc2C1=O` [Example 45c, 6-[5-(difluoromethyl)-1,3,4-oxadiazol-2-yl]-2-{[(imidazo[1,2-a]pyridin-6-yl)methyl](methyl)amino}-2,3-dihydro-1H-isoindol-1-one] the figure was 99%. As for `Fc1ccc(Cn2ccnc2-c2cc(F)cc(-c3nnc(C(F)F)o3)c2)cc1` [Example 46a, 2-(difluoromethyl)-5-(3-fluoro-5-{1-[(4-fluorophenyl)methyl]-1H-imidazol-2-yl}phenyl)-1,3,4-oxadiazole], the inhibition at 10 µM is 99%. With `CCN1C(=O)c2cc(-c3nnc(C(F)F)o3)ccc2CN1c1ccc(F)cc1` [Example 46b, 7-[5-(difluoromethyl)-1,3,4-oxadiazol-2-yl]-2-ethyl-3-(4-fluorophenyl)-3,4-dihydrophthalazin-1(2H)-one] the figure was 100%. Take `CCOC(=O)CN(C)N1Cc2ccc(-c3nnc(C(F)F)o3)cc2C1=O` [Example 46c, ethyl N-{6-[5-(difluoromethyl)-1,3,4-oxadiazol-2-yl]-1-oxo-1,3-dihydro-2H-isoindol-2-yl}-N-methylglycinate]: the inhibition at 10 µM was found to be 99%. In the case of `Fc1cc(-c2nnc(C(F)F)o2)cc(-n2nccc2OC2CCOCC2)c1` [Example 47a, 2-(difluoromethyl)-5-(3-fluoro-5-{5-[(oxan-4-yl)oxy]-1H-pyrazol-1-yl}phenyl)-1,3,4-oxadiazole], the inhibition at 10 µM turned out to be 99%.

Regarding `CC1(c2ccc(F)cc2)Oc2ccc(-c3nnc(C(F)F)o3)cc2C(=O)N1CC1CC1` (centres unmarked) [Example 47b, 3-(cyclopropylmethyl)-6-[5-(difluoromethyl)-1,3,4-oxadiazol-2-yl]-2-(4-fluorophenyl)-2-methyl-2,3-dihydro-4H-1,3-benzoxazin-4-one], the inhibition at 10 µM was 101%.

Turning to `CN(Cc1cccc2cnccc12)N1Cc2ccc(-c3nnc(C(F)F)o3)cc2C1=O` [Example 47c, 6-[5-(difluoromethyl)-1,3,4-oxadiazol-2-yl]-2-{[(isoquinolin-5-yl)methyl](methyl)amino}-2,3-dihydro-1H-isoindol-1-one], the inhibition at 10 µM amounted to 100%. As to `O=C1c2cc(-c3nnc(C(F)F)o3)ccc2CN(c2ccc(F)cc2)N1CC(F)F` [Example 48b, 2-(2,2-difluoroethyl)-7-[5-(difluoromethyl)-1,3,4-oxadiazol-2-yl]-3-(4-fluorophenyl)-3,4-dihydrophthalazin-1(2H)-one], the inhibition at 10 µM is 101%. Then `CN(CCOCc1ccccc1)N1Cc2ccc(-c3nnc(C(F)F)o3)cc2C1=O` [Example 48c, 2-{[2-(benzyloxy)ethyl](methyl)amino}-6-[5-(difluoromethyl)-1,3,4-oxadiazol-2-yl]-2,3-dihydro-1H-isoindol-1-one], with 99%; and `Fc1cc(-c2nnc(C(F)F)o2)cc(-c2nccn2Cc2cccnc2)c1` [Example 49a], with 99%. Turning to `CN1C(=O)c2cc(-c3nnc(C(F)F)o3)ccc2C[C@@]1(C)c1ccc(F)c(F)c1` [Example 49b, (3S)-7-[5-(difluoromethyl)-1,3,4-oxadiazol-2-yl]-3-(3,4-difluorophenyl)-2,3-dimethyl-3,4-dihydroisoquinolin-1(2H)-one], the inhibition at 10 µM turned out to be 42%.

In the case of `CN(Cc1cc(O)ccc1F)N1Cc2ccc(-c3nnc(C(F)F)o3)cc2C1=O` [Example 49c, 6-[5-(difluoromethyl)-1,3,4-oxadiazol-2-yl]-2-{[(2-fluoro-5-hydroxyphenyl)methyl](methyl)amino}-2,3-dihydro-1H-isoindol-1-one], the inhibition at 10 µM amounted to 100%. With `CN1C(=O)c2cc(-c3nnc(C(F)F)o3)ccc2C[C@]1(C)c1ccc(F)c(F)c1` [Example 50b, (3R)-7-[5-(difluoromethyl)-1,3,4-oxadiazol-2-yl]-3-(3,4-difluorophenyl)-2,3-dimethyl-3,4-dihydroisoquinolin-1(2H)-one] the figure was 101%.

For `CCOC(=O)CCCN(C)N1Cc2ccc(-c3nnc(C(F)F)o3)cc2C1=O` [Example 50c, ethyl 4-[{6-[5-(difluoromethyl)-1,3,4-oxadiazol-2-yl]-1-oxo-1,3-dihydro-2H-isoindol-2-yl}(methyl)amino]butanoate], the inhibition at 10 µM is 98%. Then `COCC1(c2ccccc2)Oc2ccc(-c3nnc(C(F)F)o3)cc2C(=O)N1C` (centres unmarked) [Example 51b, 6-[5-(difluoromethyl)-1,3,4-oxadiazol-2-yl]-2-(methoxymethyl)-3-methyl-2-phenyl-2,3-dihydro-4H-1,3-benzoxazin-4-one], with 99%; and `CN(Cc1ccnc(F)c1)N1Cc2ccc(-c3nnc(C(F)F)o3)cc2C1=O` [Example 51c, 6-[5-(difluoromethyl)-1,3,4-oxadiazol-2-yl]-2-{[(2-fluoropyridin-4-yl)methyl](methyl)amino}-2,3-dihydro-1H-isoindol-1-one], with 100%. With `COCCN1C(=O)c2cc(-c3nnc(C(F)F)o3)ccc2OC1(C)c1ccc(F)cc1` (centres unmarked) [Example 52b, 6-[5-(difluoromethyl)-1,3,4-oxadiazol-2-yl]-2-(4-fluorophenyl)-3-(2-methoxyethyl)-2-methyl-2,3-dihydro-4H-1,3-benzoxazin-4-one] the figure was 100%; with `CC(=O)Nc1ccc(CN(C)N2Cc3ccc(-c4nnc(C(F)F)o4)cc3C2=O)cc1` [Example 52c, N-(4-{[{6-[5-(difluoromethyl)-1,3,4-oxadiazol-2-yl]-1-oxo-1,3-dihydro-2H-isoindol-2-yl}(methyl)amino]methyl}phenyl) acetamide], 100%; with `Cn1ccc(OC2CCOCC2)c(-c2cc(F)cc(-c3nnc(C(F)F)o3)c2)c1=O` [Example 53a, 3-{3-[5-(difluoromethyl)-1,3,4-oxadiazol-2-yl]-5-fluorophenyl}-1-methyl-4-[(oxan-4-yl)oxy]pyridin-2(1H)-one], 100%. With `CN1C(=O)c2cc(-c3nnc(C(F)F)o3)cnc2C[C@]1(C)c1cccc(F)c1` [Example 53b, (7R)-3-[5-(difluoromethyl)-1,3,4-oxadiazol-2-yl]-7-(3-fluorophenyl)-6,7-dimethyl-7,8-dihydro-1,6-naphthyridin-5(6H)-one] the figure was 98%.
